This passage reports Selectivity ratio, Ki and IC50 results from ChEMBL document CHEMBL3286280, “Importance of sphingosine kinase (SphK) as a target in developing cancer therapeutics and recent developments in the synthesis of novel SphK inhibitors” (J Med Chem, 2014).

Assay [1] is filed under the species Homo sapiens. The assay is described as follows: Selectivity ratio for SphK1 (unknown origin) over SphK2 (unknown origin).
Assay [2] addresses T1, Sphingosine kinase 2 (Homo sapiens, UniProt Q9NRA0).
T1 sequence (Q9NRA0 whole entry): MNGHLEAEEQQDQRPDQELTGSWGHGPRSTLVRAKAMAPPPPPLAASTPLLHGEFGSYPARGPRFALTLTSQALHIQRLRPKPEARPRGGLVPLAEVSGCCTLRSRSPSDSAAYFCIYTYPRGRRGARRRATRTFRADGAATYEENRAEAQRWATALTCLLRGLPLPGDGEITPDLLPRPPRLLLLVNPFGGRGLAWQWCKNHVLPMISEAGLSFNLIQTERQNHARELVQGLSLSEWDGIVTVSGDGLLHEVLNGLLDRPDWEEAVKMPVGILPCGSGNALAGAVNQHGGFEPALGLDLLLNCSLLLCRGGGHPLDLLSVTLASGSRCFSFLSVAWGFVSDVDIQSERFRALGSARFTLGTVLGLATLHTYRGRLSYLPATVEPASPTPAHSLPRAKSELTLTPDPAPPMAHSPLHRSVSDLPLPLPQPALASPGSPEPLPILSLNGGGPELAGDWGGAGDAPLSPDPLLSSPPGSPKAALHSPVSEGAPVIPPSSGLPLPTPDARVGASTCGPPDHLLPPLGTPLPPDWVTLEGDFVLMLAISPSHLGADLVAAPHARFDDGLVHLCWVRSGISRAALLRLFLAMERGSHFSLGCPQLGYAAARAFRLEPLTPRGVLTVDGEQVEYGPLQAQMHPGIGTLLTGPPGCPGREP
The assay can be described thus: Inhibition of SphK2 (unknown origin).

Assay [3] concerns the target T1, Sphingosine kinase 2. The assay can be described thus: Competitive inhibition of V5-His-tagged human SphK2 expressed in HEK293 cells assessed as S1P production using sphingosine and [gamma-32P]ATP as substrate by thin layer chromatography. In kind it is cell-based.
Assay [4] concerns the target T1, Sphingosine kinase 2. The assay can be described thus: Inhibition of SphK2 (unknown origin) using sphingosine and [gamma-32P]ATP as substrate.

Take `CCCCCCCCc1ccc(CCN2CCC(O)CC2)cc1`: the Selectivity ratio in assay [1] stood at 15.

For the compound `CCCCCCCCCCCCC/C=C/[C@@H](O)[C@H](CO)N(C)C` [DIMETHYLSPINGOSINE], the Ki in assay [2] is 12 µM. This lies in the double-digit micromolar range. Turning to `CCCCCc1ccc(/C=C/[C@H](O)[C@@H](CO)NC)cc1`, the IC50 in assay [3] worked out at 10 µM. In assay [2], `CCCCCCCCc1ccc(CC[C@@](N)(CO)COC)cc1` showed a Ki of 27 µM. For the compound `CCCCOc1ccc(CC/C=C2\SC(=O)N(CCN)C2=O)cc1`, affinity in assay [4] was put at a Ki of 4.3 µM.

As for `CCCCCCCCc1ccc(CCN2CCCC(O)C2)cc1` (stereo unspecified), the Selectivity ratio in assay [1] came to 6.1.
